The subject of the test is HeLa cell. As to the kind of experiment: HeLa cell apoptosis assay, Cell Death Detection ELISA plus kit. Type of test: cell-based. More on the design: unit not given here. On the procedure: The following exemplary compounds were evaluated for their effect on a HeLa cell apoptosis assay using the Cell Death Detection ELISA plus kit from Roche Applied Science.
A general note: ELISA stands for enzyme-linked immunosorbent assay.

The values below come from patent US20080214800A1, “SIRT INHIBITORS THAT BIND TO NAD” (Elixir Pharmaceuticals, Inc., priority 2005, published 2008).

With `Cn1c2c(c3cc(Cl)ccc31)C(C(N)=O)CCC2` (centres unmarked) [Compound 5], the “average (HeLa apoptosis assay)” value is, setting by setting: (dose 0.5) 1.00; (dose 2.5) 0.97; (dose 10) 1.07; (dose 25) 0.91.

Regarding `Oc1ccc(/C=C/c2cc(O)cc(O)c2)cc1` [Resveratol], the “average (HeLa apoptosis assay)” value (dose 0.5) is recorded as 0.83, the “average (HeLa apoptosis assay)” value (dose 2.5) was found to be 0.84, the “average (HeLa apoptosis assay)” value (dose 10) was found to be 1.01 and the “average (HeLa apoptosis assay)” value (dose 25) is recorded as 0.56.
